Laboratory results reported in patent publication US10105437B2, “Epitopes related to coeliac disease” (BTG International Limited, priority 2004, dated 2018).

How the values were obtained:
[1] = tested on: PBMC from HLA-DQ2+ coeliac subjects; test: Interferon gamma ELISPOT, hordein 20mer first round library after barley challenge; assay type: cell-based, human; settings: 17 subjects
Experimental: Peptides were initially dissolved in aqueous acetonitrile (50%). Peptides in aqueous acetonitrile were transferred to sterile 96-well plates and diluted in sterile PBS with 1 mM calcium (250 mcg/ml) and then incubated with tTG (25 mcg/ml) (Sigma T5398) for 6 h 37° C. and then stored frozen (−20° C.) until use.
(§1) IFNγ ELISpot assays (Mabtech, Sweden) were performed in 96-well plates (MAIP S-45, Millipore) in which each well contained 25 mcl of peptide solution and 100 mcl of PBMC (2-8×10^5/well) in RPMI containing 10% heat inactivated human AB serum. After development and drying, IFNγ ELISpot plates were assessed using the MAIP automated ELISpot plate counter. Data was then analysed according to a novel algorithm (Expectation Maximization: EM) to define and quantify interferon-gamma responses to 9mer sequences contained within the peptide library (see FIG. 3 and below). 9mer peptides were then rationalised according to an algorithm that assumes redundancy in T-cell recognition, the “IterativeCluster” algorithm (see FIG. 4 and below), by allowing groups of amino acids with similar chemical properties at any one position in the 9mer, or for glutamate to replace glutamine at any position (assuming deamidation may have occurred).
Secalin and hordein 20mer first round peptide libraries were assessed 3 days after completing rye (bread, 100 g/d for 3 days) or barley (boiled, 100 g/d for 3 days) challenge (“day 6” PBMC interferon gamma ELISPOT responses). Although iterative analysis using 2nd and 3rd round peptide libraries to define epitopes has not yet been performed, the 20mers pre-treated with tTG found to induce “potent” responses shared substantial structural similarity to the bioactive peptides identified after wheat challenge. […] The dominant (>70% maximal response) 20mer after rye challenge was usually […] (SEQ ID NO: 1769) (8/14 subjects), or occasionally […] (SEQ ID NO: 1770) (4/14), […] (SEQ ID NO: 1771) (1/14), […] (SEQ ID NO: 1772) (1/14) and/or […] (SEQ ID NO: 1773) (1/14). Additional peptides noted for greater than 40% maximal response in at least 1 subject include:
Typically, the dominant peptides after barley challenge included one of six peptide motifs, or were one of eight other individual 20mers “dominant” in only one of 17 subjects after barley challenge. The six motifs identified:
The barley hordein peptides showing at least 40% maximal peptide response in at least one subject include the following, wherein an asterisk indicates the eight individual peptides showing maximal response in a single individual: […]

[2] = tested on: PBMC from HLA-DQ2+ coeliac subjects; test: Interferon gamma ELISPOT, second round wheat gliadin and glutenin 16mer library; assay type: cell-based, human; settings: 16mers pre-treated with transglutaminase, 18 or 28 subjects; for subjects with >70% of maximal peptide-specific response: normalized to individual's maximal response
Text: 12mer peptides were then identified in which each potential deamidation site could be in position 4, 6 or 7 in the 9mer located within HLA-DQ2 binding groove (HLA-DQ2 anchors at these positions show a preference for glutamate). Candidate 12mer core epitope sequences were then flanked with glycine followed by the N-terminal residue present in the parent gliadin polypeptide and at the C-terminal by the C-terminal residue present in the parent gliadin polypeptide followed by glycine (i.e. GXXXXXXXQXXXXXXG (SEQ ID NO: 1936)). […]
as §1
All 2nd round 16mer peptides were assessed in at least 18 subjects. […] All 16mers identified for the second round Oxford library also fulfilled the selection criteria for the Melbourne second round library.
The second round peptide library data was analysed according to the “dominance” of peptide responses in the interferon gamma ELISPOT in individual subjects i.e. the percent response of an individual's PBMC to a specific peptide normalized against that individual's maximal peptide-induced response. Sequences of peptides that stimulated at least 40% of the maximal peptide-specific response in at least one subject are shown in Table 1 below. The dataset supports the consistency and “dominance” of peptides conforming to the sequences identified using the first round 20mer peptide library using the Expectation Maximization (EM) algorithm described above.

FPLQPQQPFPQQPQQPFPQQ (Description of Artificial Sequence: Synthetic gluten peptide) [barley hordein 20mer]
number of subjects with > 70% maximal response [1]: 0
subjects with at least 40% maximal peptide response [1]: 1/17

FPQPQEPFPQQPQQPFPLQP (Description of Artificial Sequence: Synthetic gluten peptide) [barley hordein 20mer]
number of subjects with > 70% maximal response [1]: 0
subjects with at least 40% maximal peptide response [1]: 1/17

FPQYQIPTPLQPQQPFPQQP (Description of Artificial Sequence: Synthetic gluten peptide) [barley hordein 20mer]
number of subjects with > 70% maximal response [1]: 1
subjects with at least 40% maximal peptide response [1]: 2/17

FQQPQQSYPVQPQQPFPQPQ (Description of Artificial Sequence: Synthetic gluten peptide) [barley hordein 20mer]
number of subjects with > 70% maximal response [1]: 1
subjects with at least 40% maximal peptide response [1]: 3/17

G-QQQFSQPQQQFPQP-G: wheat 16mer, second round library
subjects with 10-40% of maximal peptide-specific response [2]: 7/28
subjects with 40-70% of maximal peptide-specific response [2]: 5/28
subjects with <10% of maximal peptide-specific response [2]: 16/28
subjects with >70% of maximal peptide-specific response [2]: Nil

G-QVSFQQPQQQYPSP-G: wheat 16mer, second round library
subjects with 10-40% of maximal peptide-specific response [2]: 4/28
subjects with 40-70% of maximal peptide-specific response [2]: 2/28
subjects with <10% of maximal peptide-specific response [2]: 22/28
subjects with >70% of maximal peptide-specific response [2]: Nil

GQGQSGYYPTSPQQSG (QQGYYPTSPQQSGQGQ; Description of Artificial Sequence: Synthetic gluten peptide) [wheat 16mer, second round library]
subjects with 10-40% of maximal peptide-specific response [2]: 2/18
subjects with 40-70% of maximal peptide-specific response [2]: Nil
subjects with <10% of maximal peptide-specific response [2]: 15/18
subjects with >70% of maximal peptide-specific response [2]: 1/18

GQVVNNHGQTVFNDIG [wheat 16mer, second round library]
subjects with 10-40% of maximal peptide-specific response [2]: 4/18
subjects with 40-70% of maximal peptide-specific response [2]: 1/18
subjects with >70% of maximal peptide-specific response [2]: Nil

IIMQQEQQEQRQGVQI [wheat 16mer, second round library]
subjects with 10-40% of maximal peptide-specific response [2]: 8/28
subjects with 40-70% of maximal peptide-specific response [2]: Nil
subjects with <10% of maximal peptide-specific response [2]: 19/28
subjects with >70% of maximal peptide-specific response [2]: 1/28

LAAQLPAMCRLEGGGGLLAS (Description of Artificial Sequence: Synthetic gluten peptide) [barley hordein 20mer]
number of subjects with > 70% maximal response [1]: 1
subjects with at least 40% maximal peptide response [1]: 1/17

LALQTLPAMCNVYIPP [wheat 16mer, second round library]
subjects with 10-40% of maximal peptide-specific response [2]: Nil
subjects with 40-70% of maximal peptide-specific response [2]: Nil
subjects with <10% of maximal peptide-specific response [2]: 17/18
subjects with >70% of maximal peptide-specific response [2]: Nil

LEAVTSIALRTLPTMC [wheat 16mer, second round library]
subjects with 10-40% of maximal peptide-specific response [2]: 1/18
subjects with 40-70% of maximal peptide-specific response [2]: 1/18
subjects with >70% of maximal peptide-specific response [2]: Nil

LQQQCSPVAMPQRLAR [wheat 16mer, second round library]
subjects with 10-40% of maximal peptide-specific response [2]: 11/28
subjects with 40-70% of maximal peptide-specific response [2]: 1/28
subjects with <10% of maximal peptide-specific response [2]: 15/28
subjects with >70% of maximal peptide-specific response [2]: 1/28

LQTLPSMCNVYIPPYC [wheat 16mer, second round library]
subjects with 10-40% of maximal peptide-specific response [2]: Nil
subjects with 40-70% of maximal peptide-specific response [2]: Nil
subjects with <10% of maximal peptide-specific response [2]: 17/18
subjects with >70% of maximal peptide-specific response [2]: Nil

PFPQPPQQKYPEQPQQPFPW (Description of Artificial Sequence: Synthetic gluten peptide) [barley hordein 20mer]
number of subjects with > 70% maximal response [1]: 1
subjects with at least 40% maximal peptide response [1]: 1/17

PFPQPQQPFPWQPQQPFPQP (Description of Artificial Sequence: Synthetic gluten peptide) [barley hordein 20mer]
number of subjects with > 70% maximal response [1]: 0
subjects with at least 40% maximal peptide response [1]: 6/17

PFPQPQQPFSWQPQQPFLQP (Description of Artificial Sequence: Synthetic gluten peptide) [barley hordein 20mer]
number of subjects with > 70% maximal response [1]: 0
subjects with at least 40% maximal peptide response [1]: 1/17

PFPQQPQQPFPQPQQPFRQQ (Description of Artificial Sequence: Synthetic gluten peptide) [barley hordein 20mer]
number of subjects with > 70% maximal response [1]: 3
subjects with at least 40% maximal peptide response [1]: 6/17

PGQGQSGYYPTSPQQS [wheat 16mer, second round library]
subjects with 10-40% of maximal peptide-specific response [2]: Nil
subjects with 40-70% of maximal peptide-specific response [2]: 1/18
subjects with <10% of maximal peptide-specific response [2]: 16/18
subjects with >70% of maximal peptide-specific response [2]: 1/18

QGQPGYYPTSPQQIGQ [wheat 16mer, second round library]
subjects with 10-40% of maximal peptide-specific response [2]: 1/18
subjects with 40-70% of maximal peptide-specific response [2]: 1/18
subjects with <10% of maximal peptide-specific response [2]: 15/18
subjects with >70% of maximal peptide-specific response [2]: 1/18

QGQQGYYPISPQQSGQ [wheat 16mer, second round library]
subjects with 10-40% of maximal peptide-specific response [2]: 1/18
subjects with 40-70% of maximal peptide-specific response [2]: 1/18
subjects with <10% of maximal peptide-specific response [2]: 15/18
subjects with >70% of maximal peptide-specific response [2]: 1/18

QGQQGYYPTSPQQPPQ [wheat 16mer, second round library]
subjects with 10-40% of maximal peptide-specific response [2]: Nil
subjects with 40-70% of maximal peptide-specific response [2]: 1/18
subjects with <10% of maximal peptide-specific response [2]: Nil
subjects with >70% of maximal peptide-specific response [2]: Nil

QQGYYPISPQQLGQGQ [wheat 16mer, second round library]
subjects with 10-40% of maximal peptide-specific response [2]: Nil
subjects with 40-70% of maximal peptide-specific response [2]: 1/18
subjects with <10% of maximal peptide-specific response [2]: Nil
subjects with >70% of maximal peptide-specific response [2]: Nil

QQGYYPTSPQQSGQGQ (QGQQGYYPTSPQQPPQ; Description of Artificial Sequence: Synthetic gluten peptide) [wheat 16mer, second round library]
subjects with 10-40% of maximal peptide-specific response [2]: Nil
subjects with 40-70% of maximal peptide-specific response [2]: 1/18
subjects with <10% of maximal peptide-specific response [2]: 17/18
subjects with >70% of maximal peptide-specific response [2]: Nil

VAHAIIMHQQQQQQQE [wheat 16mer, second round library]
subjects with 10-40% of maximal peptide-specific response [2]: 2/28
subjects with 40-70% of maximal peptide-specific response [2]: 1/28
subjects with <10% of maximal peptide-specific response [2]: 25/28
subjects with >70% of maximal peptide-specific response [2]: Nil

VPLYRTTTSVPFGVGT [wheat 16mer, second round library]
subjects with 10-40% of maximal peptide-specific response [2]: Nil
subjects with 40-70% of maximal peptide-specific response [2]: Nil
subjects with <10% of maximal peptide-specific response [2]: 17/18
subjects with >70% of maximal peptide-specific response [2]: Nil

YVPPDCSTINVPYANI [wheat 16mer, second round library]
subjects with 10-40% of maximal peptide-specific response [2]: 1/18
subjects with 40-70% of maximal peptide-specific response [2]: 1/18
subjects with <10% of maximal peptide-specific response [2]: 15/18
subjects with >70% of maximal peptide-specific response [2]: 1/18
